Data as given in patent publication US10150793B2, “Antagonists of CB1 receptor” (INSERM (Institut National de la Santé et de la Recherche …, priority 2011, dated 2018).

Assays:
[1] = Plasmatic levels of pregnenolone and allopregnanolone after subcutaneous injection or Alzet minipumps; type: in vivo, mice
Description: Micro-osmotic pumps (Alzet Osmotis Pumps, Charles River, France) with a pump rate of 0.15 μl/hr (model 2006) were filled with pregnenolone dissolved in PEG300 (85%) and ethanol (15%) at a concentration of 125 or 250 mg/ml (corresponding respectively to a daily dose of 12 or 24 mg/kg body weight) and implanted subcutaneously after light anesthesia. All pumps were primed by soaking them in saline at 37° C. for 60 h before implantation.
The effects of pregnenolone administration on plasmatic levels of pregnenolone were compared (n=5 per group) when pregnenolone was administered subcutaneously (6 mg/kg) or by Alzet micro-osmotic pumps (Alzet Osmotis Pumps, Charles River, France, model 2006) that simulate an extended release formulations of pregnenolone. Thus, these mini pump implanted subcutaneously provide a steady release of pregnenolone. Two pregneolone concentrations were used 0.6 mg/kg/hour and 1 mg/kg/hour (10 times and six times lower than the dose administered subcutaneously). […] The half life of pregnenolone administered subcutaneously was quite short (half an hour) and the increase in allopregnanolone was maintained over one hour (FIG. 20). […] Also pregnenolone levels remained in the range of effective therapeutic doses over two weeks.

CB1 receptor [2] = molecular target: T1, CB1 receptor (Mus musculus, UniProt P47746); experiment: THC-induced cannabinoid tetrad (body temperature, locomotor activity, catalepsy, analgesia); type: in vivo, mice; parameters: tissue Charles River Laboratories (France) (animals); host or cells: living mice, whole animal
T1 sequence (P47746 whole entry): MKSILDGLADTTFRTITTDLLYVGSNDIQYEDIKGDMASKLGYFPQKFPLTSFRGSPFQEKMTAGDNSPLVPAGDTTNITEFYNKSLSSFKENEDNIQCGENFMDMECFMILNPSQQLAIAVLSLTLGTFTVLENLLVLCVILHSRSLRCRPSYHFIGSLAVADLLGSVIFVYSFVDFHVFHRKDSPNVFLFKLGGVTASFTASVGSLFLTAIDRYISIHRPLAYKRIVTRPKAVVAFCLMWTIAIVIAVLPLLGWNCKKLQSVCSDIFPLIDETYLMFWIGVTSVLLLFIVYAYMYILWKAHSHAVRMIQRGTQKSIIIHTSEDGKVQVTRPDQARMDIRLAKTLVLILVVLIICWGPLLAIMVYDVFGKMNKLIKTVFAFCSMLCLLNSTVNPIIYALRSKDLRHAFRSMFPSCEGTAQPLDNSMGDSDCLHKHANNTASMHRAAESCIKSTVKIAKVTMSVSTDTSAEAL

[3] = Brain steroid levels after pregnenolone injections; type: in vivo, C57B1/6 mice; conditions: pregnenolone injections between 2 and 8 mg/kg
Description: Data are expressed as mean±SEM (n=7-8 per group). *=P<0.05, ***=P<0.001 compared to vehicle-treated animals (PREG 0 mg/kg).
In this example the inventors studied the effects of the doses of pregnenolone (between 2 and 8 mg/kg) that were able to inhibit the effects of CB1 activation in mice.

CB1 receptor [4] = molecular target: T1, CB1 receptor; experiment: Intravenous self-administration of the CB1 agonist WIN 55,212-2; type: in vivo, CD1 mice; parameters: tissue Charles River Laboratories (France) (animals); host or cells: living mice, whole animal
Description: The intravenous self-administration experiments where the animals learned to self-infuse WIN 55, 212-2 (WIN) were conducted in mouse operant chambers (Model ENV-307A-CT, Medical Associates, Georgia, Vt., USA) using procedures previously described (Mendizabal V, et al., Neuropsychopharmacology. 2006, 31:1957-66).
In order to analyse the effects of pregnenolone administration on the positive reinforcing effect of CB1 activation that are related to the ability of THC to induce addiction, the inventors used the intravenous self-administration model performed in accordance to protocols previously described (Soria et al., 2006; Mendizabal et al., 2006). Intravenous self-administration is considered the best behavioural model of addiction. In this model animals learn to produce an operant response, in our case pocking the nose in a hole, in order to obtain an intravenous infusion of the drug. […] In this schedule animals are required to produce an increasing number of responses (ratio) to obtain one drug infusion, the break-point being the last ratio completed and is considered a reliable measure of the motivation for the drug. On PR session the response requirement to earn an injection escalated according to the following series: 1-2-3-5-12-18-27-40-60-90-135-200-300-450-675-1000.

AMPA receptors = experiment: AMPAR-mediated mEPSC in nucleus accumbens principal neurons; type: cell-based, mouse; conditions: pregnenolone 100 nM treated slices
[5] = Elevated plus maze, anxiety-like behaviors; type: in vivo, mice; conditions: sc, 30 min before test; pregnenolone 1, 6, 10 mg/kg; rimonabant 10 mg/kg
Description: The elevated plus maze was made by a central platform (10×10 cm) from which departed 4 arms (45×10 cm) at a 90° angle from each other. Two opposite arms, named closed arms had peripheral wall 50 cm high. The two other arms, named open arms had no walls. The maze was suspended at 66 cm from the floor of the room and was brightly lighted (120 lux). The testing consisted in placing the animal in the central platform and the number of entry and the time spent in each compartment of the maze recorded for 5 min. The number of entry and time spent in the open arms are considered and index of anxiety-like behaviors, whilst the total number of entry are and index of locomotor activity.
One of the major side effects of orthosteric antagonists of the CB1 is the induction of behavioral side effect and in particular an axiodepressive state. […] This test has been chosen because an increase in anxiety was the principal undesirable side effect of this compound in humans.

CB1 receptor [6] = molecular target: T1, CB1 receptor; experiment: THC-induced increase in food intake in mice; type: in vivo; parameters: tissue Charles River Laboratories (France) (animals); host or cells: living mice, whole animal; conditions: for effect on THC-induced increase in food intake (hyperphagia) in mice: 24 h-food deprived C57B1/6 mice, THC 1 mg/kg, compound 2 mg/kg sc
Description: Food intake was evaluated by measuring consumption of food in the home cages of the animals. For each animal, 50-100 g of standard laboratory chow (U.A.R., France) was placed in the cleaned home cage. The remaining amount of food was weighted 1 h later and the amount of food consumed calculated.
Other pregnenolone derivatives (Table 4) for which the metabolism in downstream active steroids was reduced were tested for their ability to inhibit: 1. effects of the THC-induced cannabinoid tetrade (decrease in body temperature and in locomotor activity, (THC 10 mg/kg, compounds 6 mg/kg 15-30 min before THC) that is recognized as a sound method to evaluate the activation of the CB1 receptor; 2. THC-induced increase in food intake a typical effect of CB1 activation (THC between 0.5 and 1 mg/kg, compounds between 2 and 4 mg/kg 30 min before THC); 3. the increase in TNFalpha induced by LPS, another effects typical of CB1 […] (compounds 6 mg/kg 15 min before LPS). For each compound and each test independent groups of animals were used (at least n=6 per compound/per test).

[7] = Alzet minipump at 0.6 mg/kg/hour

Q: For `CC(=O)[C@H]1CC[C@H]2[C@@H]3CC=C4C[C@@H](O)CC[C@]4(C)[C@H]3CC[C@]12C` [Pregnenolone, 5-Pregnen-3β-ol-20-one], which plasma allopregnanolone [1, 7] is on record?
A: did not increased allopregnanolone

Q: What about the plasmatic pregnenolone [1, 7] of the same molecule?
A: increased in the range of the maximum increase observed after the subcutaneous injection

Q: And the plasma allopregnanolone ([1]; Alzet minipump at 1 mg/kg/hour)?
A: allopregnanolone did not increase

Q: What about the pregnenolone plasmatic concentrations ([1]; Alzet minipump at 1 mg/kg/hour) of the same molecule?
A: at the double of what observed after 6 mg/kg

Q: What about the half life ([1]; administered subcutaneously) of the same molecule?
A: half an hour

Q: And the half-life ([1]; mouse, in vivo)?
A: approximately 30 min

Q: What about the plasma allopregnanolone ([1]; pregnenolone subcutaneously at 6 mg/kg) of the same molecule?
A: induced an increase in allopregnanolone

Q: What about the “duration of the increase in pregnenolone levels” value ([1]; subcutaneous injection) of the same molecule?
A: < 1 h

Q: And the “plasmatic levels of pregnenolone” value ([1]; subcutaneously at 6 mg/kg)?
A: around 100 ng/ml

Q: What about the “effect on THC-induced cannabinoid tetrad” value (CB1 receptor [2]; pregnenolone 6 mg/kg before THC, absence of AMG) of the same molecule?
A: decreased all the behaviours of the THC-induced cannabinoid tetrad

Q: And the “effect on the AMG enhancement of THC behavioural effects” value (CB1 receptor [2]; pregnenolone 6 mg/kg, AMG 50 mg/kg, THC 10 mg/kg)?
A: completely reversed

Q: And the “effect on locomotor activity, body temperature, catalepsy and pain threshold in the absence of THC” value (CB1 receptor [2]; pregnenolone per se)?
A: had no effect

Q: What about the “brain concentrations of downstream metabolites (epiallopregnanolone, allopregnanolone)” value [3] of the same molecule?
A: did not modify the concentrations of downstream metabolites

Q: And the “brain levels of pregnenolone” value [3]?
A: increased brain levels of pregnenolone

Q: And the “effect on motivation (break-point, progressive ratio schedule)” value (CB1 receptor [4]; pregnenolone 2 or 4 mg/kg)?
A: decreased the motivation to self-administer WIN55,212

Q: And the “effect on self-administration of WIN55,212” value (CB1 receptor [4]; pregnenolone 2 or 4 mg/kg before the session, WIN 12.5 μg/kg per injection)?
A: profoundly reduced the self-administration of WIN55,212

Q: What about the “AMPAR-mediated mEPSC amplitude” value (AMPA receptors) of the same molecule?
A: 15.7±0.7 pA

Q: And the “AMPAR-mediated mEPSC decay time” value (AMPA receptors)?
A: 4.62 ± 0.06 ms

Q: And the “anxiety-like behavior (entries and time spent in open arms)” value [5]?
A: induced no increase in anxiety

Q: And the “effect on THC-induced increase in food intake (hyperphagia) in mice” value (CB1 receptor [6])?
A: decreased THC-induced hyperphagia

Q: And the “effect on THC-induced increase in food intake (hyperphagia) in mice” value (CB1 receptor [6]; listed as pregnenolone)?
A: suppressed the increase in food intake

Q: What about the “dose inhibiting THC-induced increase in food-intake (first effective dose)” value (CB1 receptor [6]; dose response in 24 h-food deprived mice, 0.5 mg/kg dose was ineffective) of the same molecule?
A: 1 mg/kg
